Test results taken from ChEMBL document CHEMBL1955859, “Molecular modeling study of cyclic pentapeptide CXCR4 antagonists: new insight into CXCR4-FC131 interactions” (Bioorg Med Chem Lett, 2012).

Target: C-X-C chemokine receptor type 4 (Homo sapiens, UniProt P61073)
Assay: Antagonist activity at CXCR4
Assay type: functional

Sequence of C-X-C chemokine receptor type 4 (P61073 whole entry): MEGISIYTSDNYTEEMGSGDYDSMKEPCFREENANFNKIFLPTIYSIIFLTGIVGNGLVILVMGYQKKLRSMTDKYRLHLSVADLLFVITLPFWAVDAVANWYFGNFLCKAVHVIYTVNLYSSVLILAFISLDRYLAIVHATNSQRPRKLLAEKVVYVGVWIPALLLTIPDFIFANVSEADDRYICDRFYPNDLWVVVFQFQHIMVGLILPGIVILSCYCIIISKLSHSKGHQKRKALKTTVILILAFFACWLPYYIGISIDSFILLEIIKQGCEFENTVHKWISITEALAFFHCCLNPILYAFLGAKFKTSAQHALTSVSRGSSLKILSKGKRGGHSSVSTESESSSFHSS

IC50: 51 nM
Compound: NC(N)=NCCC[C@@H]1NC(=O)[C@H](CCCN=C(N)N)NC(=O)[C@@H](Cc2ccccc2)NC(=O)CNC(=O)[C@H](Cc2ccc3ccccc3c2)NC1=O
